pEC50: −log10 of the molar value.
The molecules below were run against T1, human PPARdelta (Homo sapiens, UniProt Q03181) (assay: Cellular PPARdelta assay (luciferase reporter, stably transfected HEK cell line)). Details: GR-GAL4-humanPPARdelta-LBD.
T1 construct: amino acids S139-Y441; expressed in transfected cells
T1 sequence (Q03181 139-441): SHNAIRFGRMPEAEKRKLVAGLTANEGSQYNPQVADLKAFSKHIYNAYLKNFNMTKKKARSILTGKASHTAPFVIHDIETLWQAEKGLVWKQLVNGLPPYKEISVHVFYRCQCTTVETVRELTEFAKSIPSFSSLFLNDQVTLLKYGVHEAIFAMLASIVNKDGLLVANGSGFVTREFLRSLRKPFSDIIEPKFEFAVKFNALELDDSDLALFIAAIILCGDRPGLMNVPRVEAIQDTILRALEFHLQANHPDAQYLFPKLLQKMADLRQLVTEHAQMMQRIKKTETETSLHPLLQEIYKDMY
Type: cell-based
Protocol: The activity of PPARalpha agonists is determined in a 3-day assay which is described below:
The PPARalpha reporter cell line is cultivated to 80% confluence in DMEM (#41965-039, Invitrogen) which is mixed with the following additions: 10% cs-FCS (fetal calf serum; #SH-30068.03, Hyclone), 0.5 mg/ml zeocin (#R250-01, Invitrogen), 0.5 mg/ml G418 (#10131-027, Invitrogen), 1% penicillin-streptomycin solution (#15140-122, Invitrogen) and 2 mM L-glutamine (#25030-024, Invitrogen). The cultivation takes place in standard cell culture bottles (#353112, Becton Dickinson) in a cell culture incubator at 37° C. in the presence of 5% CO2. The 80%-confluent cells are washed once with 15 ml of PBS (#14190-094, Invitrogen), treated with 3 ml of trypsin solution (#25300-054, Invitrogen) at 37° C. for 2 min, taken up in 5 ml of the DMEM described and counted in a cell counter. After dilution to 500.000 cells/ml, 35,000 cells are seeded in each well of a 96 well microtiter plate with a clear plastic base (#3610, Corning Costar). The plates are incubated in the cell culture incubator at 37° C. and 5% CO2 for 24 h.
PPARalpha Agonists to be Tested are Dissolved in DMSO in a Concentration of 10 mM. This stock solution is diluted in DMEM (#41965-039, Invitrogen) which is mixed with 5% cs-FCS (#SH-30068.03, Hyclone), 2 mM L-glutamine (#25030-024, Invitrogen) and the previously described antibiotics (zeocin, G418, penicillin and streptomycin). Test substances are tested in 11 different concentrations in the range from 10 μM to 100 pM.
The medium of the PPARalpha reporter cell line seeded on day 1 is completely removed by aspiration, and the test substances diluted in medium are immediately added to the cells. The dilution and addition of the substances is carried out by a robot (Beckman FX). The final volume of the test substances diluted in medium is 100 μl per well of a 96 well microtiter plate. The DMSO concentration in the assay is less than 0.1% v/v in order to avoid cytotoxic effects of the solvent.
The assay plates are incubated in an incubator at 37° C. and 5% CO2 for 24 h.
The PPARalpha reporter cells treated with the test substances are removed from the incubator, and the medium is aspirated off. The cells are lyzed by pipetting 50 μl of Bright Glo reagent (from Promega) into each well of a 96 well microtiter plate. After incubation at room temperature in the dark for 10 minutes, the microtiter plates are measured in the luminometer (Trilux from Wallac). The measuring time for each well of a microtiter plate is 1 sec.
The raw data from the luminometer are transferred into a Microsoft Excel file. Dose-effect plots and EC50 values of PPAR agonists are calculated using the XL.Fit program as specified by the manufacturer (IDBS).
The potency of substances which bind to human PPARdelta and activate it in an agonistic manner is analyzed using a stably transfected HEK cell line (HEK=human embryo kidney) which is referred to here as PPARdelta reporter cell line. In analogy to the assay described for PPARalpha, the PPARdelta reporter cell line also contains two genetic elements, a luciferase reporter element (pdeltaM-GAL4-Luc-Zeo) and a PPARdelta fusion protein (GR-GAL4-humanPPARdelta-LBD) which mediates expression of the luciferase reporter element depending on a PPARdelta ligand. The stably and constitutively expressed fusion protein GR-GAL4-humanPPARdelta-LBD binds in the cell nucleus of the PPARdelta reporter cell line via the GAL4 protein portion to the GAL4 DNA binding motifs 5′-upstream of the luciferase reporter element which is stably integrated in the genome of the cell line. There is only little expression of the luciferase reporter gene in the absence of a PPARdelta ligand if fatty acid-depleted fetal calf serum (cs-FCS) is used in the assay. PPARdelta ligands bind and activate the PPARdelta fusion protein and thereby stimulate expression of the luciferase reporter gene. […]

Compound | pEC50
CC(C)(C)c1nnc(NS(=O)(=O)c2ccc(CCNC(=O)c3cc(Cl)ccc3Cl)cc2)s1 [Example 35, N-{2-[4-(5-tert-Butyl-[1,3,4]thiadiazol-2-ylsulfamoyl)-phenyl]-ethyl}-2,5-dichloro-benzamide] | 5.55
Cc1ccc(Cl)cc1C(=O)NCCc1ccc(S(=O)(=O)Nc2nnc(-c3ccccc3)s2)cc1 [Example 32, 5-Chloro-2-methyl-N-{2-[4-(5-phenyl-[1,3,4]thiadiazol-2-ylsulfamoyl)-phenyl]-ethyl}-benzamide] | 5.44
COc1cc(C(F)(F)F)ccc1C(=O)NCCc1ccc(S(=O)(=O)Nc2nnc(C(C)C)s2)cc1 [Example 1, N-{2-[4-(5-Isopropyl-[1,3,4]thiadiazol-2-ylsulfamoyl)-phenyl]-ethyl}-2-methoxy-4-trifluoromethyl-benzamide] | 6.96
Cc1cc(Br)c(C(=O)NCCc2ccc(S(=O)(=O)Nc3nnc(C(C)C)s3)cc2)s1 [Example 47, 3-Bromo-5-methyl-thiophene-2-carboxylic acid {2-[4-(5-isopropyl-[1,3,4]thiadiazol-2-ylsulfamoyl)-phenyl]-ethyl}-amide] | 7.22
CC(C)c1nnc(NS(=O)(=O)c2ccc(CNC(=O)c3ccc(C(F)(F)F)cc3)cc2)s1 [Example 24, N-[4-(5-Isopropyl-[1,3,4]thiadiazol-2-ylsulfamoyl)-benzyl]-4-trifluoromethyl-benzamide] | 6.12
COc1ccc(C(=O)NCCc2ccc(S(=O)(=O)Nc3nnc(C(C)C)s3)cc2)c(OC)n1 [Example 5, N-{2-[4-(5-Isopropyl-[1,3,4]thiadiazol-2-ylsulfamoyl)-phenyl]-ethyl}-2,6-dimethoxy-nicotinamide] | 5.96
COc1ccc(C(C)(C)C)cc1C(=O)NCCc1ccc(S(=O)(=O)Nc2nnc(C(C)C)s2)cc1 [Example 2, 5-tert-Butyl-N-{2-[4-(5-isopropyl-[1,3,4]thiadiazol-2-ylsulfamoyl)-phenyl]-ethyl}-2-methoxy-benzamide] | 6.36
CCOc1cc(C(F)(F)F)ccc1C(=O)NCC(C)c1ccc(S(=O)(=O)Nc2nnc(C(C)C)s2)cc1 (racemic) [Example 43, 2-Ethoxy-N-{2-[4-(5-isopropyl-[1,3,4]thiadiazol-2-ylsulfamoyl)-phenyl]-propyl}-4-trifluoromethyl-benzamide] | 7.70

More lines, now with the values ahead:

pEC50 | Compound
8.00 | CCOc1cc(C(F)(F)F)ccc1C(=O)NCC(CC)c1ccc(S(=O)(=O)Nc2nnc(C(C)C)s2)cc1 (single isomer, unassigned) [Example 44b]
7.40 | CCOc1cc(C(F)(F)F)ccc1C(=O)NCC(CC)c1ccc(S(=O)(=O)Nc2nnc(C(C)C)s2)cc1 (single isomer, unassigned) [Example 44a]
7.70 | CCOc1cc(C(F)(F)F)ccc1C(=O)NCC(C)c1ccc(S(=O)(=O)Nc2nnc(C(C)C)s2)cc1 (single isomer, unassigned) [Example 43b]
7.40 | CCOc1cc(C(F)(F)F)ccc1C(=O)NCC(C)c1ccc(S(=O)(=O)Nc2nnc(C(C)C)s2)cc1 (single isomer, unassigned) [Example 43a]

From US7858647B2, “N-[1,3,4]-thiadiazol-2-yl-benzene sulfonamides, pharmaceutical compositions thereof and methods for their therapeutic use” (Sanofi-Aventis, priority 2005, dated 2010)
